Measurements: article PMC5519620 (Frontiers in Cellular Neuroscience, 2017)
Entries after “also recorded” stand apart in the source; their conditions may differ.

What was measured:
[1] = tested on: rat GABAB receptor (GABAB1/GABAB2); assay type: binding
[2] = tested on: rat GABAB receptor (GABAB1a/GABAB2); assay type: cell-based
[3] = tested on: human α9α10 nAChR; conditions: cited from earlier work
[4] = tested on: N-type calcium channels in dorsal root ganglion neurons; conditions: cited from earlier work
[5] = tested on: neuropathic pain models; conditions: in vivo; cited from earlier work
[6] = tested on: GABAB receptor; conditions: cited from earlier work
[7] = tested on: GABAB receptor; conditions: cited from earlier work; remark: listed apart in the source
[8] = tested on: N-type calcium channels; conditions: cited from earlier work

Substance: Vc1.1
- Displacement of CGP54626-Red [1]: No displacement; also recorded: None of these conotoxins prevented the binding of the competitive orthosteric antagonist CGP54626-Red
- GABABR activation (BRET change) [2]: do not activate GABABRs expressed in HEK cells; also recorded: no effect; also recorded: neither Vc1.1 nor any of the examined conotoxins activated the GABABR
- Potency human vs. rat α9α10 nAChR [3]: much less potent at the human vs. rat α9α10 nAChR
- Block of N-type calcium channels [4]: blocks N-type calcium channels in dorsal root ganglion; also recorded: block N-type calcium channels in DRG neurons
- Effect of G-protein signalling inhibition on N-type channel block [4]: block of N-type calcium channels was eliminated by pertussis toxin, intracellular GDPβS, or an inhibitor of pp60c-src tyrosine kinase
- Analgesic effect [5]: analgesic activity in several models of neuropathic pain
- Competition with [3H]CGP54626 [6]: did not compete for binding with [3H]CGP54626
- Competition with CGP54626 [7]: did not compete for binding
- N-type calcium channel block in α9 KO neurons [8]: block N-type calcium channels in cultured neurons from α9 KO mice
